Results taken from patent US8461083B2, “Herbicidal compounds” (Syngenta Limited, priority 2008, dated 2013).

Key:
Format in all cases: in vivo
[1] = test system: Alopecurus myosuroides (ALOMY); assay: Post-emergence herbicidal glasshouse test; settings: post-emergence (sprayed after 8 days cultivation), evaluated after 13 days, 100=total damage to plant, 0=no damage to plant; for POST Application ALOMY, damage to plant: 1000 g/ha; for pest or weed control at 1000 g/ha: Alopecurus myosuroides, 312 h, read-out: POST Application ALOMY, damage to plant
Outline: (§1)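 Spray at 1000 g/ha, acetone/water 50:50 + 0.5% Tween 20; pre-em 1 d post-sowing, post-em 8 d post-sowing. Glasshouse 24/16 °C, 14 h light, 65% RH, watered twice daily. Visual damage score 0–100 at 13 d.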

[2] = test system: Amaranthus retoflexus (AMARE); assay: Post-emergence herbicidal glasshouse test; settings: post-emergence (sprayed after 8 days cultivation), evaluated after 13 days, 100=total damage to plant, 0=no damage to plant; for POST Application AMARE, damage to plant: 1000 g/ha; for pest or weed control at 1000 g/ha: Amaranthus retroflexus, 312 h, read-out: POST Application AMARE, damage to plant
Outline: as §1

[3] = test system: Echinochloa crus-galli (ECHCG); assay: Post-emergence herbicidal glasshouse test; settings: post-emergence (sprayed after 8 days cultivation), evaluated after 13 days, 100=total damage to plant, 0=no damage to plant; for POST Application ECHCG, damage to plant: 1000 g/ha; for pest or weed control at 1000 g/ha: Echinochloa crus-galli, 312 h, read-out: POST Application ECHCG, damage to plant
Outline: (§2)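 Sow in standard soil; grow 1 d (pre-emergence) or 8 d (post-emergence) at 24/16 °C, 14 h light, 65% humidity. Spray test compound at 1000 g/ha in aqueous acetone (50:50) with 0.5% Tween 20. Grow on under the same conditions and score injury (0–100) after 13 days.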

[4] = test system: Setaria faberi (SETFA); assay: Post-emergence herbicidal glasshouse test; settings: post-emergence (sprayed after 8 days cultivation), evaluated after 13 days, 100=total damage to plant, 0=no damage to plant; for POST Application SETFA, damage to plant: 1000 g/ha; for pest or weed control at 1000 g/ha: Setaria faberi, 312 h, read-out: POST Application SETFA, damage to plant
Outline: as §1

[5] = test system: Solanum nigrum (SOLNI); assay: Post-emergence herbicidal glasshouse test; settings: post-emergence (sprayed after 8 days cultivation), evaluated after 13 days, 100=total damage to plant, 0=no damage to plant; for POST Application SOLNI, damage to plant: 1000 g/ha; for pest or weed control at 1000 g/ha: Solanum nigrum, 312 h, read-out: POST Application SOLNI, damage to plant
Outline: as §1

[6] = test system: Alopecurus myosuroides (ALOMY); assay: Pre-emergence herbicidal glasshouse test; settings: pre-emergence (sprayed after one day cultivation), evaluated after 13 days, 100=total damage to plant, 0=no damage to plant; for PRE Application ALOMY, damage to plant: 1000 g/ha; for pest or weed control at 1000 g/ha: Alopecurus myosuroides, 312 h, read-out: PRE Application ALOMY, damage to plant
Outline: as §1

[7] = test system: Amaranthus retoflexus (AMARE); assay: Pre-emergence herbicidal glasshouse test; settings: pre-emergence (sprayed after one day cultivation), evaluated after 13 days, 100=total damage to plant, 0=no damage to plant; for PRE Application AMARE, damage to plant: 1000 g/ha; for pest or weed control at 1000 g/ha: Amaranthus retroflexus, 312 h, read-out: PRE Application AMARE, damage to plant
Outline: as §1

[8] = test system: Echinochloa crus-galli (ECHCG); assay: Pre-emergence herbicidal glasshouse test; settings: pre-emergence (sprayed after one day cultivation), evaluated after 13 days, 100=total damage to plant, 0=no damage to plant; for PRE Application ECHCG, damage to plant: 1000 g/ha; for pest or weed control at 1000 g/ha: Echinochloa crus-galli, 312 h, read-out: PRE Application ECHCG, damage to plant
Outline: as §2

[9] = test system: Setaria faberi (SETFA); assay: Pre-emergence herbicidal glasshouse test; settings: pre-emergence (sprayed after one day cultivation), evaluated after 13 days, 100=total damage to plant, 0=no damage to plant; for PRE Application SETFA, damage to plant: 1000 g/ha; for pest or weed control at 1000 g/ha: Setaria faberi, 312 h, read-out: PRE Application SETFA, damage to plant
Outline: as §1

[10] = test system: Solanum nigrum (SOLNI); assay: Pre-emergence herbicidal glasshouse test; settings: pre-emergence (sprayed after one day cultivation), evaluated after 13 days, 100=total damage to plant, 0=no damage to plant; for PRE Application SOLNI, damage to plant: 1000 g/ha; for pest or weed control at 1000 g/ha: Solanum nigrum, 312 h, read-out: PRE Application SOLNI, damage to plant
Outline: as §1

SMILES	POST Application ALOMY, damage to plant [1]	POST Application AMARE, damage to plant [2]	POST Application ECHCG, damage to plant [3]	POST Application SETFA, damage to plant [4]	POST Application SOLNI, damage to plant [5]	PRE Application ALOMY, damage to plant [6]	PRE Application AMARE, damage to plant [7]	PRE Application ECHCG, damage to plant [8]	PRE Application SETFA, damage to plant [9]	PRE Application SOLNI, damage to plant [10]	pest or weed control at 1000 g/ha [1]	pest or weed control at 1000 g/ha [2]	pest or weed control at 1000 g/ha [3]	pest or weed control at 1000 g/ha [4]	pest or weed control at 1000 g/ha [5]	pest or weed control at 1000 g/ha [6]	pest or weed control at 1000 g/ha [7]	pest or weed control at 1000 g/ha [8]	pest or weed control at 1000 g/ha [9]	pest or weed control at 1000 g/ha [10]
O=C1CCCC(=O)C1C(=O)c1cc2ccc(=O)n(CCC=C(F)F)c2nc1C(F)(F)F [Compound 2.2, 2-{8-(4,4-difluorobut-3-enyl)-7-oxo-7,8-dihydro-2-trifluoromethyl-[1,8]-naphthyridine-3-carbony}-cyclohexane-1,3-dione]	70	100	90	90	100	60	70	90	90	90	–	–	–	–	–	–	–	–	–	–
Cc1ccc2cc(C(=O)C3C(=O)CCCC3=O)c(C(F)(F)Cl)nc2n1 [Compound 1.89, 2-[2-chlorodifluoromethyl-7-methyl [1,8]-naphthyridine-3-carbony]-cyclohexane-1,3-dione]	70	100	90	80	90	40	100	100	100	100	–	–	–	–	–	–	–	–	–	–
CC(C)n1c(=O)ccc2cc(C(=O)C3C(=O)CCCC3=O)c(C(F)(F)F)nc21 [Compound 2.10, 2-{8-isopropyl-7-oxo-7,8-dihydro-2-trifluoromethyl-[1,8]-naphthyridine-3-carbony}-cyclohexane-1,3-dione]	–	–	–	–	–	–	–	–	–	–	80%	100%	90%	90%	100%	50%	80%	90%	80%	90%
CC(C)c1nc2nc(C(F)(F)F)c(C(=O)C3C(=O)CCCC3=O)cc2cc1F [Compound 1.75, 2-[6-fluoro-7-methylethyl-2-trifluoromethyl-[1,8]-naphthyridine-3-carbony]-cyclohexane-1,3-dione]	–	–	–	–	–	–	–	–	–	–	80%	80%	90%	90%	90%	80%	80%	90%	90%	90%
O=C1CCCC(=O)C1C(=O)c1cc2cc(F)c(NCC(F)(F)F)nc2nc1C(F)(F)F [Compound 1.90, 2-[6-fluoro-7-(2,2,2-trifluoroethylamino)-2-trifluoromethyl-[1,8]-naphthyridine-3-carbony]-cyclohexane-1,3-dione]	–	–	–	–	–	–	–	–	–	–	80%	80%	90%	90%	90%	70%	100%	100%	100%	100%
Cc1nc2nc(C(F)(F)F)c(C(=O)C3C(=O)CCCC3=O)cc2cc1F [Compound 1.41, 2-[6-fluoro-7-methyl-2-trifluoromethyl-[1,8]-naphthyridine-3-carbony]-cyclohexane-1,3-dione]	–	–	–	–	–	–	–	–	–	–	90%	100%	90%	100%	90%	90%	100%	100%	100%	100%
